The source of these data is patent US7514245B2, “Method for producing chiral α-hydroxycarboxylic acids by enzymatic hydrolysis of chiral cyanohydrins” (DSM Fine Chemicals Austria NFG GmbH & Co. KG, priority 2003, dated 2009).

The subject of assay [1] is Rhodococcus erythropolis NCIMB 11540 cells. The experiment in a line: Enzymatic hydrolysis at different temperatures, Experiment 6.2. The format is cell-based. The conditions noted are these: after 2 h, 10 g/l, 3% DMSO. On the procedure: In Experiment 6.2, the temperature was increased to 50° C.
The biocatalyst was produced according to Example 4, Experiment 4.3 (OD546 44). In each case 4.85 ml of the cell suspension (resting cells, OD546 44) were used for the enzymatic reactions. Reactions of 50 mg of (R)-2-chloromandelonitrile (>99%) ([S]=60 mM, 10 g/l), dissolved in 150 μl DMSO (3%) were carried out at 3 different temperatures (30° C., 40° C., 50° C.) in culture tubes at 150 rpm (parallel batches).
(§1) To monitor the conversion rate by means of HPLC, in each case 200 μl of sample were admixed with 200 μl of 1N HCl, centrifuged (5 min, 13 000 rpm) and diluted before measurement. After complete reaction, the ee of the product was determined.

For assay [2] the test system is unchanged. The experiment in a line: Enzymatic hydrolysis at different temperatures, Experiment 6.1. As to conditions: after 2 h, 10 g/l, 5% DMSO. The format is cell-based. On the procedure:
In Experiment 6.1, the course of the reaction was compared at reaction temperatures of 30° C., 35° C. and 40° C. The batches were carried out on a 5 ml scale using a substrate concentration of 10 g/l of (R)-2-chloromandelonitrile. After complete reaction, the ee of the product was determined.
The biocatalyst was produced according to Example 4, Experiment 4.2 (OD546 8.4). In each case 4.75 ml of the cell suspension (resting cells, OD546 52) were used for the enzymatic reactions. Reactions of 50 mg of (R)-2-chloromandelonitrile (>99%) ([S]=60 mM, 10 g/l), dissolved in 250 μl of DMSO (5%) were carried out at 3 different temperatures (30° C., 35° C., 40° C.) in culture tubes at 150 rpm (parallel batches).
as §1

Assay [3] has the same test system. Briefly: Enzymatic hydrolysis at different substrate concentrations, Experiment 4.3. The format is cell-based. The conditions noted are these: after 2 h, 3% DMSO, 40° C., resting cells. On the procedure:
In experiment 4.3, reactions were carried out using 10 g/l and 15 g/l of (R)-2-chloromandelonitrile. In addition, after complete conversion, the ee of the hydroxy acid formed was determined.
The biocatalyst was produced according to Example 1, Variant II, 2.75 l of the fermentation medium, harvest after 20 hours. The cells were resuspended in approximately 200 ml of buffer (resting cells, OD546 44). In each case 4.85 ml of this cell suspension were used for the enzymatic reactions.
Two different concentrations of (R)-2-chloromandelonitrile were studied in parallel batches. The reaction was started by adding 150 μl of substrate solution and was carried out in culture tubes in the shaking cabinet at 40° C. and 150 rpm. The conversion rate was monitored by means of HPLC. At complete conversion, the hydroxy acid was extracted after acidification and the ee was determined. • a. 50 mg of (R)-2-chloromandelonitrile, dissolved in 150 μl of DMSO ([S]=60 mM, 10 g/l, cosolvent: 3% DMSO)

Assay [4] has the same test system. The experiment in a line: Enzymatic hydrolysis at different substrate concentrations, Experiment 4.2. The conditions noted are these: 5% DMSO, 30° C., resting cells. In kind it is cell-based. On the procedure:
In experiment 4.2, the reaction was carried out using 2 different substrate concentrations (10 g/l, 20 g/l) on a 5 ml scale.
The biocatalyst was produced according to Example 1, Variant II, 2 l fermentation medium, harvest after 19 hours (OD546 8.4). The cells were resuspended in approximately 140 ml of buffer (resting cells, OD546 52). In each case 4.75 ml of this cell suspension were used for the enzymatic reactions.
Two different concentrations of (R)-2-chloromandelonitrile were studied in parallel batches. The reaction was started by adding 250 μl of substrate solution and was carried out in culture tubes in the shaking cabinet at 30° C. and 130 rpm. To monitor the conversion rate, in each case 200 μl were withdrawn and admixed with 200 μl of 1N HCl. After centrifugation (5 min, 13 000 rpm) and dilution, the conversion rates were determined by HPLC. • a. 50 mg of (R)-2-chloromandelonitrile, dissolved in 250 μl of DMSO ([S]=60 mM, 10 g/l, cosolvent: 5% DMSO)

The test system is the same in assay [5]. The experiment in a line: Enzymatic hydrolysis using different cosolvents, Experiment 5.2. The format is cell-based. The conditions noted are these: 10 g/l, 30° C. How it is done:
Here, the solvents DMSO, EtOH and ^iPrOH were again used at a fraction of 5%; the substrate concentration was 10 g/l of (R)-2-chloromandelonitrile. The reaction was carried out on a 5 ml scale.
Production of the biocatalyst Example 4, Experiment 4.2 (OD546 8.4). In each case 4.75 ml of the cell suspension (resting cells, OD546 52) were used for the enzymatic reactions. Reactions of (R)-2-chloromandelonitrile (>99%) dissolved in DMSO, EtOH and i-PrOH were carried out in culture tubes at 150 rpm and 30° C. (parallel batches).
To monitor the conversion rate by means of HPLC, in each case 200 μl of sample were admixed with 200 μl of 1N HCl, centrifuged (5 min, 13 000 rpm) and diluted before measurement. After complete conversion, the ee of the product was determined. • a. 50 mg of (R)-2-chloromandelonitrile, dissolved in 250 μl of DMSO ([S]=60 mM, 10 g/l, cosolvent: 5% DMSO)

Assay [6] shares this test system. The experiment in a line: Enzymatic hydrolysis using resting cells and lyophilized cells (Example 3). In kind it is cell-based. The conditions noted are these: approximately 20 mM substrate, 30° C. How it is done:
The biocatalyst was produced in a similar manner to Example 1, Variant I, 2 culture flasks. After 20 hours (OD546=3.5 and 1.8), cells were centrifuged off from 4 times 10 ml aliquots of fermentation broth and washed once with K/Na—PO4 buffer (pH 6.5, 50 mM). Two of the cell samples were lyophilized before activity determination, and the other two were used as resting cells.
The cells were resuspended in 1.8 ml K/Na—PO4 buffer (pH 6.5, 50 mM) (lyophilized cells were shaken for 1 h for rehydration). The reaction was started by adding 200 μl of a 200 mM substrate solution in DMSO (substrate concentration approximately 20 mM) and carried out at 30° C. and 130 rpm in the shaking cabinet. After 30 min, 60 min and 17 h, 200 μl were withdrawn and admixed with 200 μl of 1N HCl. After centrifugation (5 min, 13 000 rpm) and dilution, the conversion rates were determined by means of HPLC. Only the substrate and the two products were taken into consideration in this. The substrate used was (R)-2-chloromandelonitrile (ee>99%). The results are shown in Tab. 3.

In assay [7] the target is T1, Rhodococcus erythropolis NCIMB 11540 nitrile hydratase (Rhodococcus erythropolis, UniProt P13448+P13449).
T1 construct: made in house; host or cells: E. coli B BL21 (plasmid pMS470Nhase7.3 or pMSNhasetactac7.3), crude lysate
T1 sequence (P13448 1-207): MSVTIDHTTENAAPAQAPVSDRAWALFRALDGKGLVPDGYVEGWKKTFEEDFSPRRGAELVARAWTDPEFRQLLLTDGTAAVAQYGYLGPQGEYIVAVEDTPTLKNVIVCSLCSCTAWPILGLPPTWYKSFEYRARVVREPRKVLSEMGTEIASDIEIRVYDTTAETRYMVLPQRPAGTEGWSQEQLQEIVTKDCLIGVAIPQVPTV
T1 sequence (P13449 1-212): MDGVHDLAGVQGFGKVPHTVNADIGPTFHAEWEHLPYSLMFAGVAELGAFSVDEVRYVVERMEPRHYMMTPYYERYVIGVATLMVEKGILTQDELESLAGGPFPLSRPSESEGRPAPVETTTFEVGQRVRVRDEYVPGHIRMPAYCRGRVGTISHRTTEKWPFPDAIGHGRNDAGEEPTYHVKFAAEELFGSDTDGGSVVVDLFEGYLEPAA
The experiment in a line: Nitrile hydratase activity determination of crude lysates with methacrylonitrile. In kind it is biochemical. As to conditions: 40 mM methacrylonitrile in PBS, 28° C. On the procedure: The E. coli B BL21 cells transformed by pMS470Nhase7.3 (or pMSNhasetactac7.3) were isolated on LB-ampicillin plates and an ONC of 100 ml of LB-ampicillin medium was inoculated with an individual colony. On the next morning a main culture consisting of 250 ml of LB-ampicillin medium was inoculated in a 1000 ml chicane flask to an OD600 of 0.01 to 0.03 (Beckmann Photometer). The growth temperature was controlled at 25° C., since at higher temperatures insoluble inclusion bodies are formed exclusively. After the induction density was reached (OD600=1 Beckmann Photometer), the cultures were induced by adding IPTG to give a concentration of 0.1 mM. In addition, the media were supplemented with 0.1 mM ammonium iron(III) citrate. After reaching an OD600>4, the cultures were harvested (centrifugation at approximately 3000-g for 15 min) and washed once with approximately 100 ml of PBS buffer. […]
Activity determination: crude lysates were diluted 1:10 with PBS buffer immediately before activity determination. […] After centrifugation (16 000·g, 10 minutes), the samples were analyzed spectrophotometrically at 224 nm (Perkin Elmer UV/VIS Spectrometer Lambda Bio). […]

[8] abbreviates: lyophilized cells (19 mg/ml), 30 min.
The mark [9] stands for this setting: lyophilized cells (19 mg/ml), 60 min.
Setting [10] is: lyophilized cells (19 mg/ml), 17 h.
Setting [11] is: resting cells, 30 min, culture 1 (OD546 3.5).

On to `N#C[C@H](O)c1ccccc1Cl` [(R)-2-chloromandelonitrile], for which the hydroxy acid formed in assay [1] (T=30° C.) worked out at 42%; in assay [1] (T=40° C.) it was 80%; in assay [1] (T=50° C.), 92%; in assay [2] (T=30° C.) it was 42%; in assay [2] (T=35° C.), 65%; in assay [2] (T=40° C.) it was 86%. The hydroxy acid formed in assay [3] (10 g/l (60 mM)) is 80%; in assay [3] (15 g/l (90 mM)) it was “approximately 60%”; in assay [4] (after 2 h, 10 g/l (60 mM)), “approximately 40%”; in assay [4] (after 18 h, 20 g/l (120 mM)), 36%; in assay [4] (after 43 h, 20 g/l (120 mM)), 41%; in assay [5] (after 2 h, cosolvent 5% DMSO), “approximately 40%”. In addition, the hydroxy acid formed is listed as 35% in assay [5] (after 3 h, cosolvent 5% EtOH); 8% in assay [5] (after 3 h, cosolvent 5% i-PrOH); 64% in assay [5] (after 44 h, cosolvent 5% i-PrOH). The “hydrolysis to form the hydroxy acid complete” value in assay [5] (after 19 h, cosolvent 5% EtOH) is recorded as 94%. For the same compound, the “Conversion rate CH (cyanohydrin)” value in assay [6] (setting [8]) is on record as 40%; in assay [6] (setting [9]), 41%; in assay [6] (setting [10]) it was 43%; in assay [6] (setting [11]), 100%. The “Conversion rate HA (hydroxyamide)” value is listed as under 1% in assay [6] (setting [8]); 0% in assay [6] (setting [9]); under 1% in assay [6] (setting [10]); 2% in assay [6] (setting [11]); 4% in assay [6] (resting cells, 60 min, culture 1 (OD546 3.5)); 42% in assay [6] (resting cells, 17 h, culture 1 (OD546 3.5)).
Take `C=C(C)C#N` [methacrylonitrile]: the entries for the “typical activity of crude lysates” value in assay [7] (pMS470Nhase7.3 lysate) and in assay [7] (pMSNhasetactac7.3 lysate) were 100-250 U/ml and 350-500 U/ml, respectively.
